Experimental data as given in ChEMBL document CHEMBL4229518, “New β-lactam - Tetramic acid hybrids show promising antibacterial activities” (Bioorg Med Chem Lett, 2018).
Values after ≈ are worked out from the molar mass of the structure shown. Active and inactive are the calls of the source. The rule behind the calls is not given here.

Key:
Streptococcus pneumoniae = test: Antimicrobial activity against Streptococcus pneumoniae R6 after 18 to 20 hrs by microbroth dilution method; format: functional
Enterococcus faecalis = test: Antimicrobial activity against Enterococcus faecalis ATCC 33186 after 18 to 20 hrs by microbroth dilution method; format: functional
Pseudomonas aeruginosa = test: Antimicrobial activity against Pseudomonas aeruginosa PAO1 after 18 to 20 hrs by microbroth dilution method; format: functional
Staphylococcus aureus [1] = test: Antimicrobial activity against methicillin-susceptible Staphylococcus aureus ATCC 29213 after 18 to 20 hrs by microbroth dilution method; format: functional
Streptococcus pyogenes = test: Antimicrobial activity against Streptococcus pyogenes ATCC 700294 after 18 to 20 hrs by microbroth dilution method; format: functional; conditions: M1 GAS
Bacillus subtilis = test: Antimicrobial activity against Bacillus subtilis ATCC 23857 after 18 to 20 hrs by microbroth dilution method; format: functional
Enterobacter cloacae = test: Antimicrobial activity against Enterobacter cloacae ATCC 13047 after 18 to 20 hrs by microbroth dilution method; format: functional; conditions: subsp. cloacae ATCC 13047
Staphylococcus aureus [2] = test: Antimicrobial activity against methicillin-susceptible Staphylococcus aureus NRS70 after 18 to 20 hrs by microbroth dilution method; format: functional
Escherichia coli [3] = test: Antimicrobial activity against Escherichia coli BW25113 after 18 to 20 hrs by microbroth dilution method; format: functional
Staphylococcus aureus [4] = test: Potency index, ratio of cefaclor MIC to compound MIC for methicillin-resistant Staphylococcus aureus NRS70; format: functional
Klebsiella pneumoniae [5] = test: Antimicrobial activity against Klebsiella pneumoniae ATCC 33495 after 18 to 20 hrs by microbroth dilution method; format: functional
Staphylococcus aureus [6] = test: Potency index, ratio of cefaclor MIC to compound MIC for […] Staphylococcus aureus ATCC 29213; format: functional
Proteus mirabilis = test: Antimicrobial activity against Proteus mirabilis ATCC 25933 after 18 to 20 hrs by microbroth dilution method; format: functional
[7] = test system: Stenotrophomonas maltophilia; test: Antimicrobial activity against Stenotrophomonas maltophilia ATCC 700475 after 18 to 20 hrs by microbroth dilution method; format: functional
Acinetobacter baumannii = test: Antimicrobial activity against Acinetobacter baumannii ATCC 19606 after 18 to 20 hrs by microbroth dilution method; format: functional; conditions: ATCC 19606 = CIP 70.34 = JCM 6841
Escherichia coli [8] = test: Antimicrobial activity against tolC deficient Escherichia coli JW5503-1 after 18 to 20 hrs by microbroth dilution method; format: functional
Staphylococcus aureus [9] = test: Potency index, ratio of […] MIC to compound MIC for […] Staphylococcus aureus ATCC 29213; format: functional
Bacillus cereus = test: Antimicrobial activity against Bacillus cereus ATCC 14579 after 18 to 20 hrs by microbroth dilution method; format: functional
Bacillus anthracis = test: Antimicrobial activity against Bacillus anthracis Sterne 34F2 after 18 to 20 hrs by microbroth dilution method; format: functional
Staphylococcus aureus [10] = test: Potency index, ratio of […] MIC to compound MIC for methicillin-resistant Staphylococcus aureus NRS70; format: functional
Klebsiella pneumoniae [11] = test: Antimicrobial activity against Klebsiella pneumoniae isolate SJ 3 after 18 to 20 hrs by microbroth dilution method; format: functional
Escherichia coli [12] = test: Antimicrobial activity against Escherichia coli isolate SJ 3 after 18 to 20 hrs by microbroth dilution method; format: functional
Escherichia coli [13] = test: Antimicrobial activity against Escherichia coli isolate SJ 2 after 18 to 20 hrs by microbroth dilution method; format: functional
Klebsiella pneumoniae [14] = test: Antimicrobial activity against Klebsiella pneumoniae isolate SJ 2 after 18 to 20 hrs by microbroth dilution method; format: functional
Klebsiella pneumoniae [15] = test: Antimicrobial activity against Klebsiella pneumoniae isolate SJ 5 after 18 to 20 hrs by microbroth dilution method; format: functional
Klebsiella pneumoniae [16] = test: Antimicrobial activity against Klebsiella pneumoniae isolate SJ 1 after 18 to 20 hrs by microbroth dilution method; format: functional
Escherichia coli [17] = test: Antimicrobial activity against Escherichia coli isolate SJ 5 after 18 to 20 hrs by microbroth dilution method; format: functional
Klebsiella pneumoniae [18] = test: Antimicrobial activity against Klebsiella pneumoniae isolate SJ 4 after 18 to 20 hrs by microbroth dilution method; format: functional
Escherichia coli [19] = test: Antimicrobial activity against Escherichia coli isolate SJ 1 after 18 to 20 hrs by microbroth dilution method; format: functional
Escherichia coli [20] = test: Antimicrobial activity against Escherichia coli ATCC 35218 expressing TEM-1 beta lactamases after 18 to 20 hrs by microbroth dilution method; format: functional
Escherichia coli [21] = test: Antimicrobial activity against Escherichia coli ATCC 25922 after 18 to 20 hrs by microbroth dilution method; format: functional
Escherichia coli [22] = test: Antimicrobial activity against Escherichia coli isolate SJ 6 after 18 to 20 hrs by microbroth dilution method; format: functional
Escherichia coli [23] = test: Antimicrobial activity against Escherichia coli isolate SJ 4 after 18 to 20 hrs by microbroth dilution method; format: functional
Escherichia coli [24] = test: Induction of proton motive force collapse in Escherichia coli BW25113 at 100 uM by flow cytometry; format: functional, organism-based
HepG2 = test: Cytotoxicity against human HepG2 cells; format: cell-based
Vero = test: Cytotoxicity against African green monkey Vero cells; format: cell-based; conditions: Chlorocebus sabaeus

SMILES | MIC (Streptococcus pneumoniae) | MIC (Enterococcus faecalis) | MIC (Pseudomonas aeruginosa) | MIC (Staphylococcus aureus [1]) | MIC (Streptococcus pyogenes) | MIC (Bacillus subtilis) | MIC (Enterobacter cloacae) | MIC (Staphylococcus aureus [2]) | MIC (Escherichia coli [3]) | Ratio (Staphylococcus aureus [4]) | MIC (Klebsiella pneumoniae [5]) | Ratio (Staphylococcus aureus [6]) | MIC (Proteus mirabilis) | MIC [7] | MIC (Acinetobacter baumannii) | MIC (Escherichia coli [8]) | Ratio (Staphylococcus aureus [9]) | MIC (Bacillus cereus) | MIC (Bacillus anthracis) | Ratio (Staphylococcus aureus [10]) | other results
C=CC1=C(C(=O)O)N2C(=O)[C@@H](NC(=O)CCNC(=O)C3=C(O)C(CC(C)C)NC3=O)[C@H]2SC1 (some centres not stated) | 6.25 µg/mL (≈ 13.1 µM) | > 200 µg/mL | > 200 µg/mL | 3.13 µg/mL (≈ 6.54 µM) | 12.5 µg/mL (≈ 26.1 µM) | 6.25 µg/mL (≈ 13.1 µM) | > 200 µg/mL | 3.13 µg/mL (≈ 6.54 µM) | > 200 µg/mL | 32 | > 200 µg/mL | 32 | 100 µg/mL (≈ 209 µM) | > 200 µg/mL | > 200 µg/mL | > 200 µg/mL | 64 | > 200 µg/mL | 6.25 µg/mL (≈ 13.1 µM) | 64 | –
CC(=O)OCC1=C(C(=O)O)N2C(=O)[C@@H](NC(=O)CCNC(=O)C3=C(O)C(CC(C)C)NC3=O)[C@H]2SC1 (some centres not stated) | 12.5 µg/mL (≈ 23.8 µM) | 200 µg/mL (≈ 381 µM) | > 200 µg/mL | 6.25 µg/mL (≈ 11.9 µM) | 12.5 µg/mL (≈ 23.8 µM) | 3.13 µg/mL (≈ 5.97 µM) | > 200 µg/mL | 6.25 µg/mL (≈ 11.9 µM) | > 200 µg/mL | >=16 | > 200 µg/mL | >=16 | 200 µg/mL (≈ 381 µM) | > 200 µg/mL | > 200 µg/mL | > 200 µg/mL | >=16 | > 200 µg/mL | 25 µg/mL (≈ 47.7 µM) | >=16 | –
CO[C@@]1(NC(=O)CCCC(=O)C2=C(O)[C@@H](CC(C)C)NC2=O)C(=O)N2C(C(=O)O)=C(CSc3nnnn3C)CS[C@@H]21 | – | – | > 200 µg/mL | – | – | – | – | – | 50 µg/mL (≈ 82 µM) | – | 100 µg/mL (≈ 164 µM) | – | 12.5 µg/mL (≈ 20.5 µM) | – | > 200 µg/mL | 12.5 µg/mL (≈ 20.5 µM) | – | – | – | – | MIC (Klebsiella pneumoniae [11]): 50 µg/mL (≈ 82 µM); MIC (Escherichia coli [12]): 100 µg/mL (≈ 164 µM); MIC (Escherichia coli [13]): 200 µg/mL (≈ 328 µM); MIC (Klebsiella pneumoniae [14]): 50 µg/mL (≈ 82 µM); MIC (Klebsiella pneumoniae [15]): 200 µg/mL (≈ 328 µM); MIC (Klebsiella pneumoniae [16]): 12.5 µg/mL (≈ 20.5 µM); MIC (Escherichia coli [17]): 200 µg/mL (≈ 328 µM); MIC (Klebsiella pneumoniae [18]): > 200 µg/mL; MIC (Escherichia coli [19]): 100 µg/mL (≈ 164 µM); MIC (Escherichia coli [20]): 50 µg/mL (≈ 82 µM); MIC (Escherichia coli [21]): > 200 µg/mL; MIC (Escherichia coli [22]): > 200 µg/mL; MIC (Escherichia coli [23]): > 200 µg/mL; Activity (Escherichia coli [24]): inactive
CO[C@@]1(NC(=O)CCCC(=O)C2=C(O)[C@@H](CCCNC(=N)N)NC2=O)C(=O)N2C(C(=O)O)=C(CSc3nnnn3C)CS[C@@H]21 | – | – | > 200 µg/mL | – | – | – | – | – | 6.25 µg/mL (≈ 9.58 µM) | – | 6.25 µg/mL (≈ 9.58 µM) | – | 6.25 µg/mL (≈ 9.58 µM) | – | > 200 µg/mL | 6.25 µg/mL (≈ 9.58 µM) | – | – | – | – | MIC (Klebsiella pneumoniae [11]): 6.25 µg/mL (≈ 9.58 µM); MIC (Escherichia coli [12]): 3.13 µg/mL (≈ 4.8 µM); MIC (Escherichia coli [13]): 3.13 µg/mL (≈ 4.8 µM); MIC (Klebsiella pneumoniae [14]): 3.13 µg/mL (≈ 4.8 µM); MIC (Klebsiella pneumoniae [15]): 12.5 µg/mL (≈ 19.2 µM); MIC (Klebsiella pneumoniae [16]): 3.13 µg/mL (≈ 4.8 µM); MIC (Escherichia coli [17]): 12.5 µg/mL (≈ 19.2 µM); MIC (Klebsiella pneumoniae [18]): 6.25 µg/mL (≈ 9.58 µM); MIC (Escherichia coli [19]): 3.13 µg/mL (≈ 4.8 µM); IC50 (HepG2): > 200 µM; MIC (Escherichia coli [20]): 3.13 µg/mL (≈ 4.8 µM); MIC (Escherichia coli [21]): 3.13 µg/mL (≈ 4.8 µM); MIC (Escherichia coli [22]): 100 µg/mL (≈ 153 µM); MIC (Escherichia coli [23]): 25 µg/mL (≈ 38.3 µM); Activity (Escherichia coli [24]): inactive; IC50 (Vero): > 200 µM
